From patent US20040081712A1, “Substance for treatment of non-insulin dependent diabetes mellitus, hypertension and/or the metabolic syndrome” (priority 2001, published 2004)
Entries after “also recorded” stand apart in the source; their conditions may differ. One block for each molecule: values may come before it.

How the values were obtained:
[1] = another study; cited from earlier work
[2] = tested on: Salmonella typhimurium strains; conditions: cited from earlier work
rats [3] = experiment: intravenous administration to rats; conditions: rat, in vivo
rats [4] = conditions: rat, in vivo; cited from earlier work
isolated mouse islets = experiment: insulin secretion from isolated mouse islets; type: cell-based; conditions: for glucose-stimulated insulin secretion: 16.7 mmol/l, 10^−9-10^−3 mol/l; for maximal stimulatory dose: NMRI mouse islets
Description: Islet from 6-10 NMRI mice were isolated and incubated in the presence of 16.7 mmol/l and 10^−9-10^−3 mol/l stevioside or 10^−9-10^−3 mol/l steviol. The results of these tests are illustrated in FIGS. 4a and 4b where each column represents mean±SEM from 24 incubations of single islets. Black bars in FIG. 4a indicate that stevioside is present and hatched bars indicate that stevioside is absent. Grey bars in FIG. 4b indicate that steviol is present and hatched bars indicate that steviol is absent. The influence of the maximal stimulatory doses of 10^−3 mol/l stevioside and 10^−6 mol/l steviol was studied in NMRI mouse islets over a range between 0 and 16.7 mmol/l glucose. […] Black bars in FIG. 7a indicate that stevioside is present and hatched bars indicate that stevioside is absent. Grey bars in FIG. 7b indicate that steviol is present and hatched bars indicate that steviol is absent.

mice = conditions: mouse, in vivo; cited from earlier work
hamsters [5] = conditions: cited from earlier work
[6] = stevioside infusion at normal blood glucose; type: in vivo; conditions: bolus or constant intravenous infusion
GK rats [7] = experiment: blood pressure during 6 weeks treatment of GK rats; type: in vivo, rat; conditions: 0.025 g/kg body weight/24 h in drinking water
Description: GK rats were treated with stevioside 0.025 g/kg body weight/24 h for 6 weeks. Stevioside was administered in the drinking water. GK rats receiving drinking water with 0.111 g D-glucose/kg body weight/24 h served as controls. Systolic (FIG. 6a, control: O-O series, stevioside-treated: {circle over (2)}-{circle over (2)} series) and diastolic (FIG. 6b, control: O-O series, stevioside-treated: {circle over (2)}-{circle over (2)} series) blood pressures were measured on the tail.

[8] = isolated perfused rat liver; cited from earlier work
F344 rats = conditions: cited from earlier work
[9] = tested on: isolated normal pancreatic rat islets; conditions: 7 mmol/l D-glucose, 1,0 mmol/l; cited from earlier work
[10] = tested on: spontaneously hypertensive rats; conditions: intravenously 200 mg/kg; cited from earlier work
hamsters [11] = conditions: doses as high as 2.5 g/kg body weight/day; cited from earlier work
[12] = tested on: type II diabetic patients; experiment: acute paired cross-over test meal study; type: in vivo, human; conditions: 1 g orally with standard meal
Source text: Twelve type II diabetic patients (4 female/8 males) with a mean age of 65.8±1.6 years, a diabetes duration of 6.0±1.3 years, a mean body mass index of 28.5±1.0, and a mean glycated hemoglobin HbAlc of 7.4+0.4 percent were included in the study. The experiment was an acute, paired, cross-over study in which two test meals were served during the experiments (A: Standard meal supplemented with 1 g of stevioside given orally; B: Standard meal given together with 1 g of gelatine (placebo) given orally. The total energy content of the test meals was 1725 kJ (protein 16 E %, fat 30 E %, carbohydrate 54 E %). Blood samples were drawn from an antecubital vein 30 minutes before and 240 minutes after ingestion of the test meal. The arterial blood pressure was continuously monitored during the experiment. Students paired t-test was used for comparing the effects of stevioside with placebo on the parameters measured. Data are given as mean±SEM.

GK rats [13] = experiment: i.v. glucose tolerance test in GK rats; type: in vivo, rat
Description: In the following examples, the type II diabetic Goto-Kakizaki (GK) rats originated from Takeda Chemical Ind., Tokyo, Japan and were bred locally.
As examples of the effects of a compound including the chemical formulas II, stevioside was tested on normal Wistar rats and on GK rats. 2.0 g glucose/kg body weight and 0.2 g stevioside/kg body weight were dissolved in 0.9% saline and infused intravenously. The plasma glucose and insulin levels were measured over a period of 2 hours.
The results are shown in FIGS. 2a, 2b, 3a and 3b, were the O-O series (n=6 for Wistar and n=14 for GK) illustrate glucose infused alone and the {circle over (2)}-{circle over (2)} series (n=6 for Wistar and n=12 for GK) illustrate the combined glucose and stevioside infusion. Data are given as mean±SEM.
During a glucose tolerance test, an intravenous bolus of stevioside of 0.2 g/kg body weight was injected in GK rats (the {circle over (2)}-{circle over (2)} serie (n=6)). GK rats receiving 0.9% saline intravenously served as controls (the O-O serie (n=6)). Glucose 2.0 g/kg body weight was administered as a bolus at timepoint 0 min. The plasma glucagon responses are shown as mean±SEM in FIGS. 5a (control) and 5b (GK). The plasma glucagon was suppressed in the stevioside treated GK rat.

[14] = rats; cited from earlier work
Goto-Kakizaki rats = experiment: four-week test diets with glucose tolerance test in Goto-Kakizaki rats; type: in vivo, rat
Description: In the following example is the term “Soy” defined as a composition comprising 65 weight-% soy protein, at least 0.2 weight-% isoflavones and 18 weight-% soy dietary fibres, mostly cotyledon fibres. “Altromin” is a standard carbohydrate rich laboratory animal diet.” Four test diets, A, B, C and D as defined below, were administered for four weeks to four groups of adult rats. A: Altromin; n=12 (Alt). B: Altromin supplemented with stevioside; n=12; (Alt+Ste). C: 80% Soy plus 20% Altromin; n=12; (Soy). D: 80% Soy plus 20% Altromin plus stevioside; n=12; (Soy+Ste) Each experimental group consisted of twelve female Goto-Kakizaki with an age of 9 weeks. The rats received the stevioside (0.025 g/kg body weight/day) with the drinking water. By the end of the third experimental week intra-arterial catheters were implanted into the carotid artery thereby enabling blood sampling during a 240 minutes glucose-tolerance test which was carried out by the end of the experiment at week 4. Blood samples were drawn after a bolus infusion of 2.0 g D-glucose/kg body weight. Plasma concentrations of glucose, insulin, and glucagon were measured during the glucose tolerance test. Immediately before the glucose tolerance test fasting levels of triglycerides and cholesterol were determined. Concomitantly, the systolic blood pressure was measured using a tail cuff. (Plasma glucose was measured using MPR 3, 166 391, Glucose/GOD-PAP Method from Boehringer Mannheim) (Plasma insulin was measured using Sensitive Rat Insulin RIA, Cat # SRI-13K from Linco) (Plasma glucagon was measured using Glucagon RIA, Cat # GL-32K from Linco) (Blood pressure was measured using TSE Non-Invasive Blood Pressure Monitoring System from Technical Scientific Equipment GmbH) (Plasma cholesterol was measured GOD-PAP from Roche and triglycerides was measured using GHOD-PAP from Roche)

SMILES: C=C1C[C@@]23CC[C@H]4[C@@](C)(CCC[C@@]4(C)C(=O)O)[C@@H]2CC[C@]1(O)C3 [steviol]
mutagenicity [1]: dose-related positive responses | mutagenic effect [2]: no mutagenic effect | effect when administered intravenously to rats (rats [3]): anti-hyperglycemic, glucagonostatic and insulinotropic effect | LD50 (rats [4]): higher than 15 g/kg body weight | stimulation of insulin secretion, steviol compared with stevioside (isolated mouse islets): stimulate the insulin secretion to a greater extent | glucose-stimulated insulin secretion (isolated mouse islets): capable of potentiating glucose-stimulated insulin secretion | maximal stimulatory dose (isolated mouse islets): 10^−6 mol/l | LD50 (mice): higher than 15 g/kg body weight | LD50 (hamsters [5]; hamster, in vivo): 5-6 g/kg body weight | pathology accompanying lethal dose (hamsters [5]; hamsters): degeneration of the proximal tubular cells

hypoglycemia [6]: did not cause any hypoglycemia
SMILES: C=C1C[C@@]23CC[C@H]4[C@@](C)(CCC[C@@]4(C)C(=O)O[C@@H]4O[C@H](CO)[C@@H](O)[C@H](O)[C@H]4O)[C@@H]2CC[C@]1(O[C@@H]1O[C@H](CO)[C@@H](O)[C@H](O)[C@H]1O[C@@H]1O[C@H](CO)[C@@H](O)[C@H](O)[C@H]1O)C3 [stevioside]
time of treatment after which decrease in blood pressure was detectable (GK rats [7]): 2 weeks | decrease in the blood pressure (GK rats [7]; 6 weeks, systolic and diastolic, tail): 10-15% | mutagenicity [1]: not mutagenic | mutagenic effect [2]: no mutagenic effect | metabolism [8]: not metabolised | effect when administered intravenously to rats (rats [3]): anti-hyperglycemic, glucagonostatic and insulinotropic effect | carcinogenicity (F344 rats): not carcinogenic | insulin output [9]: significant increase in insulin output | fall in the systolic blood pressure [10]: only small | effect on growth or reproduction (hamsters [11]): no effect on growth or reproduction | glucose-stimulated insulin secretion (isolated mouse islets): capable of potentiating glucose-stimulated insulin secretion | maximal stimulatory dose (isolated mouse islets): 10^−3 mol/l | absolute IAUC postprandial blood glucose [12]: 522±64 mmol/l x 240 min | insulin response (IAUC) [12]: the difference did not reach statistical significance | postprandial glucagon levels [12]: 281±33 | reduction of postprandial blood glucose response compared to placebo [12]: 18±5% | time after which significant decrease of plasma glucose was observed (GK rats [13]; 2.0 g glucose/kg + 0.2 g stevioside/kg i.v.): 30 min | plasma glucose response (GK rats [13]; 2.0 g glucose/kg + 0.2 g stevioside/kg i.v., 2 hours): inhibited blood glucose responses; also recorded: diminished glucose response | plasma insulin response (GK rats [13]; 2.0 g glucose/kg + 0.2 g stevioside/kg i.v., compared to the Wistar rat): pronounced increase in the insulin response | plasma glucagon response (GK rats [13]; i.v. bolus 0.2 g/kg, glucose 2.0 g/kg): suppressed | route of excretion [14]: excreted by the urine | area under the plasma-glucagon response curve, in words (Goto-Kakizaki rats; both Altromin and soy groups): significantly reduced | area under the glucose response curve, in words (Goto-Kakizaki rats; glucose tolerance test): reduced the incremental area (IAUC) under the glucose response curve | first phase insulin response, in words (Goto-Kakizaki rats; glucose tolerance test): significantly improved the first phase insulin responses | insulin response curve 0 to 240 minutes, in words (Goto-Kakizaki rats; glucose tolerance test): did not alter the insulin responses | fasting triglyceride levels, in words (Goto-Kakizaki rats; rat, in vivo): significant suppression of the fasting triglyceride levels | suppression of the systolic blood pressure (Δ) (Goto-Kakizaki rats; stevioside in combination with Altromin): −28 mmHg | suppression of the systolic blood pressure (Δ) (Goto-Kakizaki rats; stevioside in combination with soy): −21 mmHg
